Broadly, the pIC50 is the IC50 on a negative log10 scale, so that one unit is a factor of ten. Broadly, the pEC50 is the EC50 on a negative log10 scale, so that one unit is a factor of ten. The low end stands for a high EC50, the high end for a low EC50.

This is an account of results in publication PMC11743353 (Pharmacological Reports, 2024).

In data set [1] the test system is SARS-CoV-2. Put plainly: Plaques analysis (plaque dimension on Vero E6 cells). To be noted: Vero E6 cells infected with supernatants of treated Calu-3 cells; mean diameter of 10 plaques.
Protocol: In order to assess the levels of infective SARS-CoV-2 released by treated or untreated cells, a plaque assay was performed. Vero E6 were seeded in 12-well plates and infected with serial dilution (10-fold) of the supernatants derived from treated and infected Calu-3 cells. Plaques were visible five days after infection, then cells were methanol-fixed, stained with crystal violet (0.1%) and plaques were manually counted [26] (microscope NeXcope NE620). The experiments were run in triplicate.
After crystal violet (0.1%) staining for antiviral activity assessment, plaques forming unit were identified and measured in size. Dimension of plaques derived by cytopathic effect of SARS-CoV-2 in Vero E6 cells was evaluated by microscopy (NeXcope NE620). For each well, 5 different fields were manually selected, and at least 10 plaques for each condition were identified and measured using NeXcope visualization software (Capture V.2.0) and reported as mean diameter (mm) ± SD.
The nature of data set [2]: MTT assay for cell viability. The class given is cell-based. To be noted: human, Calu-3 cells, read-out: CC50 (cytotoxic concentration 50%).
In data set [3] the test system is ACE2 expression on Calu-3 cell surface. Kind of data set: ACE2 immunofluorescence assay on Calu-3 cell surface. The class given is cell-based, human. To be noted: Calu-3 cells; for ACE2 expression on cell membranes (immunofluorescence): 25 µM, 24 h and 48 h, compared to untreated. As to the method:
Calu-3 cells were incubated with a specific antibody against human angiotensin-converting enzyme 2 (ACE2) (SN0754 Thermo Fisher; Italy) as previously reported, followed by incubation with the FITC goat antirabbit IgG (H + L) secondary antibody (Thermo Fisher, Milan, Italy). Immunofluorescence was observed by fluorescence microscopy (Nikon Eclipse TE2000S, Milan, Italy). DNA was stained using DAPI (Thermo Fisher, Milan, Italy) to identify cell nuclei and reported as relative fluorescence units (RFU) compared to untreated control sample, by immunofluorescence quantification derived by the analysis of 5 different images derived by biological replicates, using Qupath software. In Brief, for each condition, the percentage of ACE2-positive stained cells was obtained considering the total DAPI-stained nuclei as 100% and then normalized on untreated control sample result and reported as fold difference value.
Considering the role of ACE2 receptor in viral entry into host cells, and the ability of ADAM17 to shed it from cell surface, we analyzed ACE2 expression on Calu-3 cell surface by immunofluorescence after 24 and 48 h of treatment with the three compounds, at the concentration of 25 µM (Fig. 4 and supplementary Figure S1).

Data set [4] deals with T1, MMP-1 (Homo sapiens, UniProt P03956).
T1 construct: purchased Merck Millipore 444208
T1 sequence (P03956 100-469): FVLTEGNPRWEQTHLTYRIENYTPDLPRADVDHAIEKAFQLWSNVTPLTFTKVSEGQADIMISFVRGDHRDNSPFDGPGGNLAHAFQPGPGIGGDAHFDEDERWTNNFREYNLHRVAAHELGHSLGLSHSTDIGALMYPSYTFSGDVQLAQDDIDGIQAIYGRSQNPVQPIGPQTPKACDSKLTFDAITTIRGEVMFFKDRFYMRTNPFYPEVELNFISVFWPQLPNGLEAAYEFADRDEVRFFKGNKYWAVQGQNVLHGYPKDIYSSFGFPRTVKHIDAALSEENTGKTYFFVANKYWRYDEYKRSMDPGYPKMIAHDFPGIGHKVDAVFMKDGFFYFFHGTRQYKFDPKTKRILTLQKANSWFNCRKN
To be noted: isolated enzyme, fluorometric assay; cited from earlier work.

The subject of data set [5] is SARS-CoV-2. Put plainly: microbe, parasite or virus in culture. The class given is cell-based. To be noted: for pEC50: Severe acute respiratory syndrome coronavirus 2, Calu-3.
The target of the next data set is T2, recombinant human ADAM17 (Homo sapiens, UniProt P78536).
T2 construct: purchased Merck Millipore PF133
T2 sequence (P78536 215-824): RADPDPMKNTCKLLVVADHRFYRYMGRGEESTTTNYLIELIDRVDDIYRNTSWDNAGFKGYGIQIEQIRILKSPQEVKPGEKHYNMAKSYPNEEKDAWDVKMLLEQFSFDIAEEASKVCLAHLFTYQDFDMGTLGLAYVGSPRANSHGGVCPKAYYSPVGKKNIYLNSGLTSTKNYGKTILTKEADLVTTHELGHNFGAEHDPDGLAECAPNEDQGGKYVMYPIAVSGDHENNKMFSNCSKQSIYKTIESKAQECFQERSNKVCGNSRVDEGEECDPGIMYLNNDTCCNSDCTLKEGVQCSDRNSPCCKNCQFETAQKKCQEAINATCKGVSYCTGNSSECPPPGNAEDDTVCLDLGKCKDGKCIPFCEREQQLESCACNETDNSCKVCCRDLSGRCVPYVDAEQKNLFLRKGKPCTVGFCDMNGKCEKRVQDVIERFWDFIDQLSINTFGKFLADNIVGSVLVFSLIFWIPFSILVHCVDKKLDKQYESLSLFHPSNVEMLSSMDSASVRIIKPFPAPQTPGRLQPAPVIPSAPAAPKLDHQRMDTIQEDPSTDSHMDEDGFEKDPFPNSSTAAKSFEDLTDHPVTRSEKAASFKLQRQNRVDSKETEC
Kind of data set: Fluorometric enzyme inhibition assay, ADAM17. It is filed as biochemical. To be noted: isolated enzyme.

The target in a further data set is T3, MMP-9 (Homo sapiens, UniProt P14780).
T3 construct: purchased Merck Millipore PF038
T3 sequence (P14780 107-707 limits assumed): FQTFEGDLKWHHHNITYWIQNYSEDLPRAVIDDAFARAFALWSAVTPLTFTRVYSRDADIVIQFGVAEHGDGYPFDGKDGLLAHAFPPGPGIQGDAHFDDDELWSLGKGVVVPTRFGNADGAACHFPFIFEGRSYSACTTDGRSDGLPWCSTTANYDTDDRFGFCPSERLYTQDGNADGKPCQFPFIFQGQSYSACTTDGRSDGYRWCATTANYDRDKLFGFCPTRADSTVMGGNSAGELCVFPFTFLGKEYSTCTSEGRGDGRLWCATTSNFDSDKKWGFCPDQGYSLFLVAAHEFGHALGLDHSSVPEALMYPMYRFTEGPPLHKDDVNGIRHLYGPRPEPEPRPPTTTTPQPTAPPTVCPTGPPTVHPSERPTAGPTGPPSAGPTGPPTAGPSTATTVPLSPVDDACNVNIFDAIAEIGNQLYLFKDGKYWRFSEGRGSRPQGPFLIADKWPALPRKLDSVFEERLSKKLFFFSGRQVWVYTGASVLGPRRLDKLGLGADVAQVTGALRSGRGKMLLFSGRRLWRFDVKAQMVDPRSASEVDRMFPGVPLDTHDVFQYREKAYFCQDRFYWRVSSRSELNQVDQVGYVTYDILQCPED
Put plainly: Fluorometric enzyme inhibition assay, MMP-9. To be noted: isolated enzyme. It is filed as biochemical.

Another data set has as its target T4, Recombinant human ADAM10 (Homo sapiens, UniProt O14672).
T4 construct: purchased R&D Systems 936-AD
T4 sequence (O14672 214-748): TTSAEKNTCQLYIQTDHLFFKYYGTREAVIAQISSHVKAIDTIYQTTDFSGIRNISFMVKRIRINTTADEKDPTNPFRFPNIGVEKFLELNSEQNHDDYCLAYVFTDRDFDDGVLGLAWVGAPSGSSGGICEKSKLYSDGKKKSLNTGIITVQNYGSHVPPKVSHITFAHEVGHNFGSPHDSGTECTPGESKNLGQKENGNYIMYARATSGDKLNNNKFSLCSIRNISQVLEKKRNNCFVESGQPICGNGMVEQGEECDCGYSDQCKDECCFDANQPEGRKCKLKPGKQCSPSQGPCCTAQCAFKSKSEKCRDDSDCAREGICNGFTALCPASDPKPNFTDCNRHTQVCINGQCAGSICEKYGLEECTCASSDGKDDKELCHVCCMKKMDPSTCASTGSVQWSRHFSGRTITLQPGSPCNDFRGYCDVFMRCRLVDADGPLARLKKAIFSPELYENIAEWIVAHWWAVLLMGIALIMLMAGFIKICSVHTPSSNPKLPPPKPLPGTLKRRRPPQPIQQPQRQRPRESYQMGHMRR
Put plainly: Fluorometric enzyme inhibition assay, ADAM10. It is filed as biochemical. To be noted: isolated enzyme.

In the next data set the target is T5, MMP-2 (Homo sapiens, UniProt P08253).
T5 construct: purchased Merck Millipore PF037
T5 sequence (P08253 110-660): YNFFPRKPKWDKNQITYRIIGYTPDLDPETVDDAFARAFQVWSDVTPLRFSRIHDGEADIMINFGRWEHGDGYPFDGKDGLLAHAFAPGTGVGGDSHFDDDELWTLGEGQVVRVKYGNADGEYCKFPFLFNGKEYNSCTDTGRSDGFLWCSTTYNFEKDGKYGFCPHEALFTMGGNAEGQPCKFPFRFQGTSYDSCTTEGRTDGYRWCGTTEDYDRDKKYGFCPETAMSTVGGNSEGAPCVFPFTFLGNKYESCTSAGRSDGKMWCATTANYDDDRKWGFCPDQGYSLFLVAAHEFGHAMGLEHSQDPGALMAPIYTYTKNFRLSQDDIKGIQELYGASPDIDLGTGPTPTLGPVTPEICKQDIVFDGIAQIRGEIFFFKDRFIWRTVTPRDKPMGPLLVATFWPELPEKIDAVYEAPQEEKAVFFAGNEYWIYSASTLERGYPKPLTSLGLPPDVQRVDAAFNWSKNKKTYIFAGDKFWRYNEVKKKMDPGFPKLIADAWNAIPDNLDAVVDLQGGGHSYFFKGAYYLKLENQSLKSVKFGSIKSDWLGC
Put plainly: Fluorometric enzyme inhibition assay, MMP-2. To be noted: isolated enzyme. The class given is biochemical.

Data set [6] addresses T6, Recombinant human MMP-14 catalytic domain (Homo sapiens, UniProt P50281).
T6 construct: Recombinant human MMP-14 catalytic domain was a kind gift of Prof; Gillian Murphy; gift of Prof; Gillian Murphy (Department of Oncology, University of Cambridge, UK)
Put plainly: Fluorometric enzyme inhibition assay, MMP-14. The class given is biochemical. To be noted: isolated enzyme.

Data set [7] has as its target T1, MMP-1. Kind of data set: Fluorometric enzyme inhibition assay, MMP-1. The class given is biochemical. To be noted: isolated enzyme.
In a further data set the test system is sALCAM release. Set-up: method as in PMID 24044434. To be noted: ovarian cancer cell lines; cited from earlier work.
Data set [8] concerns SARS-CoV-2. It is filed as cell-based.
A further data set concerns CD16 shedding. Set-up: method as in PMID 28192188. To be noted: 30 µM; PBMC co-cultured with hepatitis C virus-infected HuH7.5 cells; cited from earlier work.
Data set [9] concerns SARS-CoV-2. The class given is cell-based. This is another data set of the same source.
Setting [10] is: using CC50 values after 48 h of treatment.

pEC50, pIC50: −log10 of the molar value. Where two headings read alike, the source gives them in different places.

Take `O=C(NCCC[C@@H](NS(=O)(=O)c1ccc(OCc2cc(Br)cc(Br)c2)cc1)C(=O)NO)c1cccc(C(=O)NCCC[C@@H](NS(=O)(=O)c2ccc(OCc3cc(Br)cc(Br)c3)cc2)C(=O)NO)c1` [Compound 1]: the “Plaque dimension (mm ± SD)” value with SARS-CoV-2 [1] is recorded as 0.53± 0.19 mm. For the same molecule, in data set [2], the CC50 at 24 h amounted to 113 µM and the CC50 at 48 h came to 113 µM. Further, the “ACE2 expression on cell membranes (immunofluorescence)” value in [3] is given as “increased ACE2 expression”. Also, the pIC50 at MMP-1 [4] is < 3.70. Moreover, the pEC50 in the data set with SARS-CoV-2 [5] was 4.90. Moreover, the “SI (selectivity index, CC50/EC50)” value in the data set with SARS-CoV-2 [5] (setting [10]) is 8.91.

`CC(=O)N[C@@H]1[C@@H](O)[C@H](O)[C@@H](CO)O[C@H]1NC(=S)NCCOCCOCCOCCOCCC(=O)NCCC[C@@H](NS(=O)(=O)c1ccc(OCc2cc(Br)cc(Br)c2)cc1)C(=O)NO` [Compound 2, 1-(((2R, 3R, 4R, 5 S, 6R)-3-acetamido-4,5-dihydroxy-6-(hydroxymethyl)tetrahydro-2 H-pyran-2-yl)amino)-N-((R)-4-(4-((3,5-dibromobenzyl)oxy)phenylsulfonamido)-5-(hydroxyamino)-5-oxopentyl)-1-thioxo-5,8, 11, 14-tetraoxa-2-azaheptadecan-17-amide]: the “Plaque dimension (mm ± SD)” value in the data set on SARS-CoV-2 [1] turned out to be 0.61± 0.23 mm. For the same molecule, the CC50 at 24 h in data set [2] was determined as 67.2 µM. The CC50 at 48 h in data set [2] came to 72 µM. For the same molecule, the negative-log IC50 (pIC50) at recombinant human ADAM17 is 8.26; against MMP-9, 5.75; at Recombinant human ADAM10, 6.09; against MMP-2, 6.49; in data set [6], 4.15; against MMP-1 [7], < 3.70. The molecule further gave a pEC50 in the data set with SARS-CoV-2 [5] of 4.87. For the same molecule, the “SI (selectivity index, CC50/EC50)” value in the data set with SARS-CoV-2 [5] (setting [10]) stood at 5.29.

As to `NC(=O)NCCC[C@@H](NS(=O)(=O)c1ccc(OCc2cc(Br)cc(Br)c2)cc1)C(=O)NO` [JG26], in the data set with SARS-CoV-2 [1], the “Plaque dimension (mm ± SD)” value worked out at 0.42± 0.2 mm. Further, the “block of sALCAM release” value with sALCAM release is “able to block sALCAM release”. For the same molecule, in [2], the CC50 at 24 h came to 77.9 µM and the CC50 at 48 h was found to be 107 µM. In addition, the “LR vs DMSO (viral load logarithmic reduction), RT-qPCR” value with SARS-CoV-2 [8] was found to be 2.37. For the same molecule, the “ACE2 expression on cell membranes (immunofluorescence)” value in [3] was “increased ACE2 expression”. Moreover, in the data set on CD16 shedding, the “reduction of CD16 shedding” value was “active”. The pIC50 at MMP-1 [4] is < 3.30. In the data set with SARS-CoV-2 [5], the “SI (selectivity index, CC50/EC50)” value was determined as 13.23 and the negative logarithm of the EC50 (pEC50) is 5.09. In the data set with SARS-CoV-2 [9], the “LR vs DMSO (viral load logarithmic reduction), plaque assay” value came to 1.44 and the “effect on viral infection at lower concentration” value is given as “did not show any effect”.

On to `CCCCCCCCCCCCCC(=O)O[C@@H]1[C@@H](C)[C@@]2(O)[C@@H](C=C(CO)C[C@]3(O)C(=O)C(C)=C[C@@H]23)[C@@H]2C(C)(C)[C@]12OC(C)=O` [PMA, Phorbol 12-myristate 13-acetate, reference compound], for which, in the data set with SARS-CoV-2 [1], the “Plaque dimension (mm ± SD)” value turned out to be 0.82± 0.32 mm. In [3] (PMA control, compared to untreated samples), the “ACE2 expression (immunofluorescence), ADAM17 inductor control” value is on record as “slightly decreased ACE2 expression”. In the data set with SARS-CoV-2 [9], the “effect on SARS-CoV-2 infection (plaque assay and genome titration)” value is “induced a sensible SARS-CoV-2 infection progression”.
